Test results from patent publication US8202909B2, “Method for treating central nervous system disorders” (Sucampo AG, priority 2005, dated 2012).
Marks after values point to notes of the source that are not given here.

Key:
ddY mice [1] = test: Persistent time of gasping movements after decapitation in mice, subcutaneous (Example 3); format: in vivo; settings: 300 μg/kg s.c.
Description: (§1) Four-week-old male ddY mice were housed in aluminum cages in an animal room controlled for temperature (24±3° C.), relative humidity (55±10%), ventilation rate (˜12 times/hour) and light-dark cycle (fluorescent lighting: 8:00 to 20:00) for at least 7 days. The animals were allowed free access to pellet diet and tap water from water bottles. Healthy animals without abnormalities in general signs were used in this study.
11-deoxy-13,14-dihydro-16,16-difluoro-PGE1 (hereinafter, “Compound C”) was dissolved in a vehicle (physiologic saline containing 0.01% polysorbate 80 and 0.5% ethanol), and was administered subcutaneously to the animals. The control group received an equal amount of the vehicle in the same manner.
(§2) The animals were decapitated at 30 minutes after the administration, and the persistent time of gasping movements was measured.

ddY mice [2] = test: Persistent time of gasping movements after decapitation in mice, oral administration (Example 2); format: in vivo; settings: for Persistent Time of Gasping Movements: fasted mice, decapitated 30 minutes after administration, Mean ± SE, n=10; for Effect on persistent time of gasping movement after decapitation (in words): oral administration at 100, 300 and 1000 μg/kg
Description: as §1, with “study. The animals were fasted for 20 hours or longer with free access to water before use.” for “study.”
Compound A and 11-deoxy-13,14-dihydro-15-keto-16,16-difluoro-PGE1 methyl ester (hereinafter, “Compound B”) were dissolved in a vehicle (physiologic saline containing 0.01% polysorbate 80 and 0.5% ethanol), and was administered orally to the animals. The control group received an equal amount of the vehicle in the same manner.
as §2

[3] = test system: Human vascular endothelial cell cultures; test: Recovery of transendothelial electrical resistance (TEER) after oxygen deprivation; format: cell-based; settings: 5 nM with 0.1% DMSO, after 30 minutes oxygen deprivation in nitrogen atmosphere; FIG. 1
Description: FIG. 1 is a graph showing the effect of Compound A on Recovery of Transendothelial Electrical Resistance (TEER). Human vascular endothelial cell cultures were brought to confluence, as measured by transendothelial electrical resistance (TEER). The cell cultures were then deprived of oxygen for 30 minutes by incubation in a nitrogen atmosphere. The cells were then either treated with 0.1% DMSO or with 5 nM Compound A with 0.1% DMSO. Statistical significance is indicated at all data points after drug treatment. N=10 cells.
Human vascular endothelial cell cultures were brought to confluence, as measured by transendothelial electrical resistance (TEER). The cell cultures were then deprived of oxygen for 30 minutes by incubation in a nitrogen atmosphere. The cells were then either treated with 0.1% DMSO or with 5 nM Compound A with 0.1% DMSO final.

ddY mice [4] = test: Persistent time of gasping movements after decapitation in mice, subcutaneous (Example 1); format: in vivo; settings: for Persistent Time of Gasping Movements: decapitated 30 minutes after administration, Mean ± SE, n=10
Description: as §1
11-deoxy-13,14-dihydro-15-keto-16,16-difluoro-PGE1 (hereinafter, “Compound A”) was dissolved in a vehicle (physiologic saline containing 0.01% polysorbate 80 and 0.5% ethanol), and was administered subcutaneously to the animals. The control group received an equal amount of the vehicle in the same manner.
as §2

Crj: CD (SD) male rats = test: Cerebral infarct volume after transient focal cerebral ischemia (MCA occlusion-reperfusion) in rats; format: in vivo; settings: for Infarct volume: brain removed 24 hours after MCA occlusion, mean±S.E., n=10
Description: Seven-week-old Crj: CD (SD) male rats were housed in polymethylpentene cages in an animal room controlled for room temperature (22-26° C.), relative humidity (47-60%), ventilation rate (10-20 times/hour) and light-dark cycle (lighting: 7:00 to 19:00) for at least 6 days. The animals were allowed free access to pellet diet and water from water bottles. Animals judged to be in good health were used in this study.
Rats were anesthetized by inhalation of a gas mixture of 2% isoflurane and N2O:O2 (=7:3), stabilized in the supine position, and maintained in the anesthetized state by inhalation of the above gas mixture. The animals were monitored for rectal temperature using a temperature probe during the period of the surgical operation. When a fall in body temperature was observed, an incandescent lamp was used to maintain the temperature at around 37° C. The right common carotid artery, external carotid artery, and internal carotid artery were exposed for occluding the middle cerebral artery (hereafter, MCA). The right common carotid artery and the external carotid artery were ligatured using sutures (5-0), and a 19 mm-long segment of No. 4-0 nylon suture which were precoated with silicone was inserted into the MCA through the bifurcation of the external and internal carotid arteries to occlude the MCA. At 2 hours after the MCA occlusion, the suture was removed and the blood flow in the MCA was restored.
Compound A was dissolved in a vehicle (physiological saline containing 1% polysorbate 80), and was administered intravenously to the animals at a volume of 2 mL/kg immediately after the MCA occlusion-reperfusion and 30 minutes after the MCA occlusion-reperfusion. The control group received an equal volume of the vehicle in the same manner.
At 24 hours after MCA occlusion, the animals were decapitated and the brains were immediately isolated. […] Graphic analysis (Adobe Photoshop™, version 3.0 J; Adobe Systems Incorporated, Color Count 0.3b; K&M Software Corporation) was applied to the photographs, and the infarct area was measured. […]

[5] = test system: Alzheimer's disease model animals; test: Morris water maze test in Alzheimer's disease model animals (bilateral ibotenic acid lesions of basal ganglia); format: in vivo, rats
Description: Alzheimer's disease model animals were prepared by bilateral ibotenic acid lesions of basal ganglia in rats. Briefly, rats were anesthetized with pentobarbital sodium and placed in a small animal stereotaxic apparatus. Bilateral infusions of 5 μg/0.5 μL of ibotenic acid into the basal ganglia were made at a rate of 0.1 μL/min via a syringe pump and a stainless steel cannula (outer diameter: 0.5 mm). Stereotaxic coordinates were as follows: −0.8 mm posterior from bregma, 2.6 mm lateral (both sides) from midline, and 7.4 mm depth from the bone surface. Animals in sham group received only anesthesia. Animals were then housed with free access to food and water for the rest of the study.
Compound A was orally administered for 14 days after surgery to the model animals. Control group received the same amount of the vehicle.
Morris water maze test was performed to evaluate the effect of test compound. The water maze was a circular pool (painted gray, 1.48 m in diameter, 0.33 m high). The pool contained water that was maintained at a temperature of 17-18° C. During testing in the water maze, a platform, 12 cm in diameter, was located 2 cm below the water in one of four locations (zone 4) in the pool, approximately 38 cm from the sidewall. A light bulb was placed around the pool as a cue external to the maze. The animals received 2 trials per day from 10 days after the initiation of the administration with Compound A or the vehicle. The rats were trained to locate the hidden escape platform, which remained in a fixed location throughout testing. Trials lasted a maximum of 90 sec. The latency to find the submerged platform was recorded and used as a measure of acquisition of the task. The animals were tested in this way for 4 days (total 8 trials), and then they received a probe trial on the 5th day. […] The time the rat spent searching for the platform in the training quadrant (zone 4): i.e., the previous location of the platform was recorded and used as an index of memory.

[6] = test system: Human microvascular endothelial cells (adult) (HMVEC-AD); test: Recovery of ATP level after nitrogen atmosphere (luciferin-luciferase assay); format: cell-based; settings: 5 nM, after 30 minutes nitrogen atmosphere, compared to cells treated with 0.01% DMSO alone; FIG. 2
Description: FIG. 2 is a graph showing the effect of Compound A on Recovery of ATP Level. Human microvascular endothelial cells (adult) (HMVEC-AD) were grown to confluence. The cells were then treated for 30 minutes with a nitrogen atmosphere and returned to normal oxygen. ATP levels were monitored at the indicated time points using a luciferin-luciferase assay system (ATPlite, Perkin Elmer). ATP levels are given as relative luminescence. N=6 cells at each time point.
Human microvascular endothelial cells (adult) (HMVEC-AD) were grown to confluence. The cells were then treated for 30 minutes with a nitrogen atmosphere and returned to normal oxygen. ATP levels were monitored at the indicated time points using a luciferin-luciferase assay system (ATPlite, Perkin Elmer).

Structure (SMILES) | Effect on persistent time of gasping movement after decapitation (in words) (ddY mice [1]) | Persistent Time of Gasping Movements (ddY mice [1]; decapitated 30 minutes after administration, Mean ± SE, n=10, p<0.01 vs vehicle) [s] | Persistent Time of Gasping Movements (ddY mice [2]; 100 μg/kg p.o.) [s] | Persistent Time of Gasping Movements (ddY mice [2]; 300 μg/kg p.o.) [s] | Persistent Time of Gasping Movements (ddY mice [2]; 1000 μg/kg p.o.) [s] | Effect on persistent time of gasping movement after decapitation (in words) (ddY mice [2]) | Recovery of TEER (in words) [3] | Persistent Time of Gasping Movements (ddY mice [4]; 10 μg/kg s.c.) [s] | Persistent Time of Gasping Movements (ddY mice [4]; 30 μg/kg s.c.) [s] | Persistent Time of Gasping Movements (ddY mice [4]; 100 μg/kg s.c., p<0.05 vs vehicle) [s] | Persistent Time of Gasping Movements (ddY mice [4]; 300 μg/kg s.c., p<0.01 vs vehicle) [s] | Effect on persistent time of gasping movement after decapitation (in words) (ddY mice [4]; 10, 30, 100 and 300 μg/kg s.c.) | Infarct volume (Crj: CD (SD) male rats; 0.05 mg/kg i.v. immediately after and 30 minutes after MCA occlusion-reperfusion, P<0.05) | Infarct volume (Crj: CD (SD) male rats; 0.5 mg/kg i.v. immediately after and 30 minutes after MCA occlusion-reperfusion, P<0.01) | Effect on cerebral infarct volume after ischemia (in words) (Crj: CD (SD) male rats; 0.05 and 0.5 mg/kg i.v., compared with vehicle group) | Goal latency (8th trial) ([5]; 1 mg/kg orally for 14 days after surgery, mean ± SE, n=10, p<0.01 vs vehicle) [s] | Time spent in zone 4 ([5]; 1 mg/kg orally for 14 days after surgery, probe trial 90 sec, mean ± SE, n=10, p<0.05 vs vehicle) [s] | Effect on deficit in learning and memory (in words) ([5]; orally for 14 days after surgery, Morris water maze) | Recovery of ATP level (in words) [6]
CCCCC(F)(F)C(O)CCC1CCC(=O)C1CCCCCCC(=O)O (centres unmarked) [Compound C, 11-deoxy-13,14-dihydro-16,16-difluoro-PGE1] | significant prolongation | 25.2 ± 0.7 |  |  |  |  |  |  |  |  |  |  |  |  |  |  |  |  | 
CCCCC(F)(F)C(=O)CCC1CCC(=O)C1CCCCCCC(=O)OC (centres unmarked) [Compound B, 11-deoxy-13,14-dihydro-15-keto-16,16-difluoro-PGE1 methyl ester] |  |  | 17.6 ± 0.5 | 19.1 ± 0.5 | 19.1 ± 0.4 | dose-dependent prolongation |  |  |  |  |  |  |  |  |  |  |  |  | 
CCCCC(F)(F)C(=O)CCC1CCC(=O)C1CCCCCCC(=O)O (centres unmarked) [Compound A, 11-deoxy-13,14-dihydro-15-keto-16,16-difluoro-PGE1] |  |  | 18.8 ± 0.5 | 18.9 ± 0.3 | 20.2 ± 0.6 | dose-dependent prolongation | immediate recovery of TEER | 21.7 ± 0.6 | 22.0 ± 0.4 | 23.2 ± 0.8 | 23.6 ± 0.6 | dose-dependent prolongation | 208.2 ± 22.2* mm^3 | 172.9 ± 25.5** mm^3 | significantly reduced the cerebral infarct volume | 51.5 ± 13.7 | 20.8 ± 3.6 | significant reversals of the deficit in learning and memory | ATP levels returned more quickly
